Measurements taken from patent publication US11759455B2, “Substituted 1H-imidazo[4,5-b]pyridin-2(3H)-ones and their use as GLUN2B receptor modulators” (JANSSEN PHARMACEUTICA NV, priority 2016, dated 2023).
Like-named read-outs stand apart in the source and are kept apart here.

Target: T1, human GluN1/GluN2B NMDA receptors (Homo sapiens, UniProt Q13224)
T1 construct: expressed in transfected cells
Experiment: Cell-based calcium flux (FLIPR) assay on cloned human NR1/NR2B ion channels expressed in mammalian cells (standard and HTS buffer variants);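 also: stable Tet-On inducible cell line, Ca2+ influx triggered by glutamate at about EC40 plus 10 µM glycine, fluorescent dye read-out over 5 min, normalized to control wells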

[1] = standard assay buffer (0.5 mM MgCl2 in dye loading buffer; 137 mM NaCl, 4 mM KCl in assay buffer), human GluN1/GluN2B, read-out: NR2B IC50 (μM) standard assay
[2] = HTS assay buffer (1.5 mM MgCl2 in dye loading buffer; 150 mM NaCl, 3 mM KCl in assay buffer), human GluN1/GluN2B, read-out: NR2B IC50 (μM) HTS assay
[3] = standard assay buffer (0.5 mM MgCl2 dye loading; 137 mM NaCl, 4 mM KCl assay buffer), human GluN1/GluN2B cells, read-out: NR2B IC50 (μM) standard assay

T1 sequence (Q13224 27-1484, other chains not shown): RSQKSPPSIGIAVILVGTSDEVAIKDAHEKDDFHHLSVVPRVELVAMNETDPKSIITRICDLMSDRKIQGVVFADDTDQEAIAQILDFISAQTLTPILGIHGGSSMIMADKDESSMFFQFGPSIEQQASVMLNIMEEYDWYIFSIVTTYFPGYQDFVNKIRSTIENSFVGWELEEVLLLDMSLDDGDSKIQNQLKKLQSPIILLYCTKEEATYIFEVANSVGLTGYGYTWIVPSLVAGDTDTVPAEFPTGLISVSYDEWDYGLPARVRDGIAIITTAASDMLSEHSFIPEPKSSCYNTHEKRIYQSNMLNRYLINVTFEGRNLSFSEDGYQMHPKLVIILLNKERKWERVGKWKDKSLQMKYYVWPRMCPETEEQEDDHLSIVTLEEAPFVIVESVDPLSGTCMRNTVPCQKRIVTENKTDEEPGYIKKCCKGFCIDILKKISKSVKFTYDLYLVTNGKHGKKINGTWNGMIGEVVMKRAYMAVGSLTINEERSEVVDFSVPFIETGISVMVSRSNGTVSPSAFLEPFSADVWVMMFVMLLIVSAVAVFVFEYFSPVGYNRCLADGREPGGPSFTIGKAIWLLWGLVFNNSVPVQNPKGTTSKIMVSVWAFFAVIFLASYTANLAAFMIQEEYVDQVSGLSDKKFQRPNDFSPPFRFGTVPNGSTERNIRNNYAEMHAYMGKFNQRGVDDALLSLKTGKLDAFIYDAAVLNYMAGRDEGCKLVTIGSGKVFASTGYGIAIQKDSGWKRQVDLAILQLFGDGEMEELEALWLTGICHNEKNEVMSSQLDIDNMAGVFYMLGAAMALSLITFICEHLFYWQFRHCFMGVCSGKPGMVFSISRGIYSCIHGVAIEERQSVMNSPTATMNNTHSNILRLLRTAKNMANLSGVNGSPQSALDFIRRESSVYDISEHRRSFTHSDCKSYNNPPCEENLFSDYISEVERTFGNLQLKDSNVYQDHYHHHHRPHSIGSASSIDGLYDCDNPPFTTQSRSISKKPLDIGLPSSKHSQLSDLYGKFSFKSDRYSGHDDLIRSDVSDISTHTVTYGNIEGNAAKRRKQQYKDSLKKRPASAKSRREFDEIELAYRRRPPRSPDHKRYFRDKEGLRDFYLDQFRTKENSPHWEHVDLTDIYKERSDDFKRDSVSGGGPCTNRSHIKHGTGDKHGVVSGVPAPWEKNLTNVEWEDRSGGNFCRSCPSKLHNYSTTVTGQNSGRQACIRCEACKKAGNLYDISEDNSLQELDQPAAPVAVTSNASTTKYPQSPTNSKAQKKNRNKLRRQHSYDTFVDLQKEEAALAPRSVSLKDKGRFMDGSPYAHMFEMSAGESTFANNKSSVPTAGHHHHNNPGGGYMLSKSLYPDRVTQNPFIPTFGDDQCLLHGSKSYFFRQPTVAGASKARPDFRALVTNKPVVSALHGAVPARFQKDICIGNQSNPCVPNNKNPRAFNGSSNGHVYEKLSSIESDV

With Cn1c(=O)n(Cc2csnn2)c2cc(-c3cccc(C(F)(F)F)c3)cnc21 [Example 548, 3-Methyl-1-(thiadiazol-4-ylmethyl)-6-[3-(trifluoromethyl)phenyl]imidazo[4,5-b]pyridin-2-one] the IC50 [1] was 0.185 µM.
With COc1cccc(-c2cnc3[nH]c(=O)n(Cc4ccc(F)cc4)c3c2)c1OC [Example 493, 6-(2,3-Dimethoxyphenyl)-1-[(4-fluorophenyl)methyl]-3H-imidazo[4,5-b]pyridin-2-one] the IC50 [2] was 1.01 µM.
Cn1c(=O)n(Cc2cncnc2)c2cc(-c3cccc(F)c3)cnc21 [Example 54, 6-(3-Fluorophenyl)-3-methyl-1-(pyrimidin-5-ylmethyl)imidazo[4,5-b]pyridin-2-one] was tested, and the IC50 [3] was 0.61 µM.
With CCc1ccc(-c2cnc3c(c2)n(CC(=O)N2CCC2)c(=O)n3C)s1 [Example 87, 1-[2-(Azetidin-1-yl)-2-oxo-ethyl]-6-(5-ethyl-2-thienyl)-3-methyl-imidazo[4,5-b]pyridin-2-one] the IC50 [3] was 0.021 µM.
With Cc1ncc(Cn2c(=O)[nH]c3ncc(-c4cccc(C(F)(F)F)c4)cc32)cn1 [Example 231, 1-[(2-Methylpyrimidin-5-yl)methyl]-6-[3-(trifluoromethyl)phenyl]-3H-imidazo[4,5-b]pyridin-2-one] the IC50 [3] was 0.094 µM.
Cc1ccccc1-c1cnc2[nH]c(=O)n(CCN3CCCC3)c2c1 [Example 179, 6-(o-Tolyl)-1-(2-pyrrolidin-1-ylethyl)-3H-imidazo[4,5-b]pyridin-2-one] was tested, and the IC50 [3] was 0.707 µM.
Cn1c(=O)n(Cc2cccnn2)c2cc(-c3ccc(C(F)F)s3)cnc21 [Example 100, 6-[5-(Difluoromethyl)-2-thienyl]-3-methyl-1-(pyridazin-3-ylmethyl)imidazo[4,5-b]pyridin-2-one] showed an IC50 [3] of 0.033 µM.
COc1ccc(-c2cnc3[nH]c(=O)n(Cc4cc(C)on4)c3c2)c(OC)c1 [Example 518, 6-(2,4-Dimethoxyphenyl)-1-[(5-methylisoxazol-3-yl)methyl]-3H-imidazo[4,5-b]pyridin-2-one] gave an IC50 [1] of 0.808 µM.
In the case of Cc1cccc(-c2cnc3c(c2)n(Cc2cccnc2)c(=O)n3C)c1F [Example 357, 6-(2-Fluoro-3-methyl-phenyl)-3-methyl-1-(3-pyridylmethyl)imidazo[4,5-b]pyridin-2-one], the IC50 [1] is reported as 0.118 µM.
Cc1nccc(Cn2c(=O)[nH]c3ncc(-c4cccc(C(F)(F)F)c4)cc32)n1 [Example 254, 1-[(2-Methylpyrimidin-4-yl)methyl]-6-[3-(trifluoromethyl)phenyl]-3H-imidazo[4,5-b]pyridin-2-one] was tested, and the IC50 [3] was 0.824 µM.
In the case of COCCNC(=O)Cn1c(=O)[nH]c2ncc(-c3cc(F)cc(F)c3)cc21 [Example 610, 2-[6-(3,5-Difluorophenyl)-2-oxo-3H-imidazo[4,5-b]pyridin-1-yl]-N-(2-methoxyethyl)acetamide], the IC50 [1] is reported as 1.79 µM.
Molecule Cn1c(=O)n(Cc2cccnn2)c2cc(-c3csc(C(F)(F)F)c3)cnc21 [Example 103, 3-Methyl-1-(pyridazin-3-ylmethyl)-6-[5-(trifluoromethyl)-3-thienyl]imidazo[4,5-b]pyridin-2-one] has an IC50 [3] of 0.017 µM.
For O=c1[nH]c2ncc(-c3cccc(F)c3)cc2n1Cc1ccccn1 [Example 281, 6-(3-Fluorophenyl)-1-(2-pyridylmethyl)-3H-imidazo[4,5-b]pyridin-2-one], the IC50 [3] was 0.932 µM.
For COc1cccc(Cn2c(=O)[nH]c3ncc(-c4cc(C)cs4)cc32)c1 [Example 507, 1-[(3-Methoxyphenyl)methyl]-6-(4-methyl-2-thienyl)-3H-imidazo[4,5-b]pyridin-2-one], the IC50 [2] was 8.1 µM.
Molecule O=c1[nH]c2ncc(-c3cccs3)cc2n1CC1CC1 [Example 472, 1-(Cyclopropylmethyl)-6-(2-thienyl)-3H-imidazo[4,5-b]pyridin-2-one] has an IC50 [1] of 1.56 µM.
Molecule Cc1cccc(-c2cnc3c(c2)n(Cc2cncc(F)c2)c(=O)n3C)c1F [Example 352, 6-(2-Fluoro-3-methyl-phenyl)-1-[(5-fluoro-3-pyridyl)methyl]-3-methyl-imidazo[4,5-b]pyridin-2-one] has an IC50 [1] of 0.052 µM.
O=C(Cn1c(=O)n(CF)c2ncc(-c3ccc(C(F)(F)F)s3)cc21)N1CCCC1 [Example 598, 3-(Fluoromethyl)-1-(2-oxo-2-pyrrolidin-1-yl-ethyl)-6-[5-(trifluoromethyl)-2-thienyl]imidazo[4,5-b]pyridin-2-one] was tested, and the IC50 [1] was 0.173 µM.
Cn1c(=O)n(Cc2cncc(F)c2)c2cc(-c3ccc(F)c(C(F)F)c3)cnc21 [Example 546, 6-[3-(Difluoromethyl)-4-fluoro-phenyl]-1-[(5-fluoro-3-pyridyl)methyl]-3-methyl-imidazo[4,5-b]pyridin-2-one] was tested, and the IC50 [1] was 0.024 µM.
For Cc1ccncc1Cn1c(=O)[nH]c2ncc(-c3ccc(F)c(C)c3F)cc21 [Example 278, 6-(2,4-Difluoro-3-methyl-phenyl)-1-[(4-methyl-3-pyridyl)methyl]-3H-imidazo[4,5-b]pyridin-2-one], the IC50 [3] was 0.111 µM.
CCOc1ccc(F)cc1-c1cnc2[nH]c(=O)n(CC3CC3)c2c1 [Example 466, 1-(Cyclopropylmethyl)-6-(2-ethoxy-5-fluoro-phenyl)-3H-imidazo[4,5-b]pyridin-2-one] gave an IC50 [2] of 15.8 µM.
For Cn1c(=O)n(Cc2cccnc2)c2cc(-c3cccc(C(F)F)c3)cnc21 [Example 363, 6-[3-(Difluoromethyl)phenyl]-3-methyl-1-(3-pyridylmethyl)imidazo[4,5-b]pyridin-2-one], the IC50 [1] was 0.053 µM.
COc1ccc(-c2cnc3[nH]c(=O)n(CC(=O)NC4CC4)c3c2)cc1C [Example 451, N-Cyclopropyl-2-[6-(4-methoxy-3-methyl-phenyl)-2-oxo-3H-imidazo[4,5-b]pyridin-1-yl]acetamide] was tested, and the IC50 [2] was 1.03 µM.
Cc1cccc(-c2cnc3[nH]c(=O)n(Cc4cccnc4)c3c2)c1 [Example 297, 6-(m-Tolyl)-1-(3-pyridylmethyl)-3H-imidazo[4,5-b]pyridin-2-one] showed an IC50 [3] of 0.027 µM.
Work on Cc1nnc(Cn2c(=O)n(C)c3ncc(-c4ccc(F)c(C)c4F)cc32)o1 [Example 575, 6-(2,4-Difluoro-3-methyl-phenyl)-3-methyl-1-[(5-methyl-1,3,4-oxadiazol-2-yl)methyl]imidazo[4,5-b]pyridin-2-one] yielded an IC50 [1] of 0.028 µM.
Cc1nnc(Cn2c(=O)n(C)c3ncc(-c4ccc(F)c(F)c4)cc32)o1 [Example 73, 6-(3,4-Difluorophenyl)-3-methyl-1-[(5-methyl-1,3,4-oxadiazol-2-yl)methyl]imidazo[4,5-b]pyridin-2-one] showed an IC50 [3] of 0.314 µM.
For CCC(=O)Cn1c(=O)[nH]c2ncc(-c3cccc(C(F)(F)F)c3)cc21 [Example 240, 1-(2-Oxobutyl)-6-[3-(trifluoromethyl)phenyl]-3H-imidazo[4,5-b]pyridin-2-one], the IC50 [3] was 0.022 µM.
For Cn1cc(Cn2c(=O)n(C)c3ncc(-c4ccc(C(F)(F)F)s4)cc32)cn1 [Example 565, 3-Methyl-1-[(1-methylpyrazol-4-yl)methyl]-6-[5-(trifluoromethyl)-2-thienyl]imidazo[4,5-b]pyridin-2-one], the IC50 [1] was 0.374 µM.
For O=C(Cn1c(=O)n(CCF)c2ncc(-c3ccc(C(F)(F)F)s3)cc21)N1CCC1 [Example 535, 1-[2-(Azetidin-1-yl)-2-oxo-ethyl]-3-(2-fluoroethyl)-6-[5-(trifluoromethyl)-2-thienyl]imidazo[4,5-b]pyridin-2-one], the IC50 [1] was 0.106 µM.
Molecule CCOc1ccc(F)cc1-c1cnc2[nH]c(=O)n(CC(=O)c3cccs3)c2c1 [Example 460, 6-(2-Ethoxy-5-fluoro-phenyl)-1-[2-oxo-2-(2-thienyl)ethyl]-3H-imidazo[4,5-b]pyridin-2-one] has an IC50 [2] of 1.77 µM.
Cn1c(=O)n(CC(=O)N2CCC(F)(F)C2)c2cc(-c3cccc(C(F)(F)F)c3)cnc21 [Example 196, 1-[2-(3,3-Difluoropyrrolidin-1-yl)-2-oxo-ethyl]-3-methyl-6-[3-(trifluoromethyl)phenyl]imidazo[4,5-b]pyridin-2-one] was tested, and the IC50 [3] was 0.182 µM.
Molecule Cn1c(=O)n(Cc2cccnn2)c2cc(-c3ccc(F)c(Cl)c3)cnc21 [Example 380, 6-(3-Chloro-4-fluoro-phenyl)-3-methyl-1-(pyridazin-3-ylmethyl)imidazo[4,5-b]pyridin-2-one] has an IC50 [1] of 0.016 µM.
With O=c1[nH]c2ncc(-c3ccc(F)c(F)c3)cc2n1Cc1cccnc1 [Example 292, 6-(3,4-Difluorophenyl)-1-(3-pyridylmethyl)-3H-imidazo[4,5-b]pyridin-2-one] the IC50 [3] was 0.06 µM.
Work on CCc1ccc(-c2cnc3c(c2)n(CC(=O)N2CC(F)C2)c(=O)n3C)s1 [Example 88, 6-(5-Ethyl-2-thienyl)-1-[2-(3-fluoroazetidin-1-yl)-2-oxo-ethyl]-3-methyl-imidazo[4,5-b]pyridin-2-one] yielded an IC50 [3] of 0.02 µM.
In the case of Cn1cc(Cn2c(=O)n(C)c3ncc(-c4ccc(F)c(F)c4)cc32)cn1 [Example 550, 6-(3,4-Difluorophenyl)-3-methyl-1-[(1-methylpyrazol-4-yl)methyl]imidazo[4,5-b]pyridin-2-one], the IC50 [1] is reported as 0.697 µM.
For Cn1c(=O)n(Cc2cccnc2)c2cc(-c3cccc(F)c3)cnc21 [Example 51, 6-(3-Fluorophenyl)-3-methyl-1-(3-pyridylmethyl)imidazo[4,5-b]pyridin-2-one], the IC50 [3] was 22.6 µM.
Work on CCOc1ccccc1-c1cnc2[nH]c(=O)n(CC(=O)NC)c2c1 [Example 441, 2-[6-(2-Ethoxyphenyl)-2-oxo-3H-imidazo[4,5-b]pyridin-1-yl]-N-methyl-acetamide] yielded an IC50 [2] of 2.44 µM.
Cc1c(F)ccc(-c2cnc3c(c2)n(CC(=O)N2CC(F)C2)c(=O)n3CF)c1F [Example 600, 6-(2,4-Difluoro-3-methyl-phenyl)-1-[2-(3-fluoroazetidin-1-yl)-2-oxo-ethyl]-3-(fluoromethyl)imidazo[4,5-b]pyridin-2-one] showed an IC50 [1] of 0.017 µM.
For COc1ccc(-c2cnc3[nH]c(=O)n(Cc4ccccc4C#N)c3c2)c(OC)c1 [Example 487, 2-[[6-(2,4-Dimethoxyphenyl)-2-oxo-3H-imidazo[4,5-b]pyridin-1-yl]methyl]benzonitrile], the IC50 [2] was 2.57 µM.
